From publication PMC3552057 (Biochemistry, 2013)

Target: T1, HpxO (Klebsiella pneumoniae, UniProt A6T923)
T1 sequence (A6T923 1-384): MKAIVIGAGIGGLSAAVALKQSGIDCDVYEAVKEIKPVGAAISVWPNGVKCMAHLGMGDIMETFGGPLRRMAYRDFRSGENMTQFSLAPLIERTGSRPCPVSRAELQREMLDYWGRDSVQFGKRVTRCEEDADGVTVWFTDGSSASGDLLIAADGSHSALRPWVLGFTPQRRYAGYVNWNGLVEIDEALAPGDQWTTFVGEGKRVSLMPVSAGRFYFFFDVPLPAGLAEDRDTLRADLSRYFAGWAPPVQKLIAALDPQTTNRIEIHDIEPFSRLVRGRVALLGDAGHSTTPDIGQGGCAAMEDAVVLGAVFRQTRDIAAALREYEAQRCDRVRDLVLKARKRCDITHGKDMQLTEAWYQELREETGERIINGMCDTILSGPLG
Assay: X-ray crystal structure, […] Å
Assay type: binding
Settings: SeMet HpxO without uric acid; FAD in the in conformation

For `Cc1cc2nc3c(=O)[nH]c(=O)nc-3n(C[C@H](O)[C@H](O)[C@H](O)COP(=O)(O)OP(=O)(O)OC[C@H]3O[C@@H](n4cnc5c(N)ncnc54)[C@H](O)[C@@H]3O)c2cc1C` [FAD], which “X-ray crystal structure, 2.2 Å” value is on record?
The value was “One FAD molecule binds to the HpxO monomer in an extended conformation”.
